Data reported in paper PMC6032018, “Post-translational regulation of a Porphyromonas gingivalis regulator” (Journal of Oral Microbiology, 2018).

Columns and labels:
[1] = target: T1, RprY (Porphyromonas gingivalis, UniProt B2RK10); assay: EMSA with nqrA promoter DNA and in vitro ChIP after treatment with AcP; format: biochemical; conditions: phosphoryl donor; covalent; protein as purified already partly phosphorylated; acetylation by AcP not ruled out
T1 construct: N-terminal His6-RprY (pETRprY), recombinant from E. coli BL21(DE3), 28 kDa ORF; already phosphorylated as purified
T1 sequence (B2RK10 entry or part of it): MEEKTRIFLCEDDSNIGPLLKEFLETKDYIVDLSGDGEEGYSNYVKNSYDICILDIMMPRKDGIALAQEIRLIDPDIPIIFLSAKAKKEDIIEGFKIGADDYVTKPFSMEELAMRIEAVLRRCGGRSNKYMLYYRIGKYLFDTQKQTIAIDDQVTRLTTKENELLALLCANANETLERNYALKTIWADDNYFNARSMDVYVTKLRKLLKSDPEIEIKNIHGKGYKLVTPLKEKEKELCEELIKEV

[2] = target: T1, RprY; assay: autoacetylation, anti-acetyl-lysine Western blot; format: biochemical; conditions: 10 mM Tris-HCl pH 8.0, 37 °C, no added enzyme; covalent (lysine acetylation); acetyl donor

SMILES | EMSA with nqrA promoter DNA and in vitro ChIP after treatment with AcP [1] | autoacetylation, anti-acetyl-lysine Western blot [2]
CC(=O)OP(=O)(O)O [acetyl phosphate] | increasing concentrations of AcP resulted in increased incorporation of the labelled promoter into RprY-DNA complexes | –
CC(=O)SCCNC(=O)CCNC(=O)[C@H](O)C(C)(C)COP(=O)(O)OP(=O)(O)OC[C@H]1O[C@@H](n2cnc3c(N)ncnc32)[C@H](O)[C@@H]1OP(=O)(O)O [acetyl-CoA] | – | RprY was dependent on both the concentration of Ac-CoA and the length of incubation
